# Data reported in patent USRE34165E, “Potent thymopentin analogs” (Ortho Pharmaceutical Corporation, priority 1990, dated 1993).
# Where two headings read alike, the source gives them in different places. Non-standard residues stand in square brackets, D forms with d. Residues, ends and D or L forms follow the SMILES beside them. No end group written: not given here. Aib = CC(C)(N)C(=O)O
# Columns and labels:
# [1] = test system: cell membrane receptor of the intact CEM cell; assay: Cyclic-GMP assay: induction of cyclic-GMP production in intact CEM cells; format: cell-based, human; settings: for Result on the cyclic-GMP assay (in words): in comparison with thymopentin; for Concentration of c-GMP Produced: 4-5 min at 37° C.
# Description: This biological activity is evidenced by an assay measuring induction of cyclic-GMP production in a human T-cell line in comparison with thymopoietin. The induction of c-GMP production by a test peptide in this assay indicates the ability of the test peptide to bind to the thymopoietin receptor site on the cell and induce thymopoietin-like biological activity. […] Because of the expense of preparing peptides and the rapid degradation of peptides often observed in living systems, peptides such as those herein which have increased potency are greatly prized.
# This assay measures the ability of the test peptide to bind to the cell membrane receptor of the intact CEM cell and selectively stimulate production of cyclic-GMP, as does thymopoietin itself.
# The CEM cell line was obtained from the American Type Culture Collection and was cultured in RPMI-1640 medium supplemented with 10% heat-inactivated fetal bovine serum, 10% heat-inactivated horse serum, 2 mM L-glutamine, and 50 µg/ml gentamycin at 37° C. in a humid atmosphere containing 5 percent CO2, to a final density of 3-4×10^6 cells/ml. At this concentration, the cells were in the early stationary phase of the growth curve and were judged greater than 90% viable by trypan blue exclusion. The cells were grown for four days and harvested. After harvesting, the cells were washed three times in PBS and were resuspended in RPMI-1640 medium at a concentration of 3.12×10^7 cells/ml. After the cells had been allowed to equilibrate at 37° C. for 30 min, various concentrations of the test peptides were added in a volume of 25 μl of medium to 1 ml of cells, the initial concentration of test compound added being selected to yield the desired final concentration of test peptide in the medium. The test peptide was mixed instantly with the cell suspension. The incubation was allowed to proceed in a shaking water bath at 37° C. for 4-5 min and was then terminated by addition of ice-cold trichloroacetic acid (10%; 1 ml).
# The cells in TCA were then homogenized and sonicated to release cyclic nucleotide. The resulting suspension was centrifuged at 3000 g for 20 min at 4° C. and the resulting precipitate was dissolved in 0.1N NaOH and sonicated for a further 30 minutes, after which the protein content was determined by the method of Cadman, et al., Anal. Biochem., 96, 21-23 (1979). The TCA was removed from the supernatant fraction by extracting four times with 5 ml of water-saturated diethyl ether. After the final extraction, the remaining traces of ether were removed from the supernatant fraction by heating it for 10 min in a 50° C. water bath. After lyophilization of the extracted supernatant fraction, it was reconstituted in 50 mM acetate buffer, ph 6.2, for radioimmunoassay of cyclic nucleotide using the assay kit NEX-133, New England Nuclear, Boston, Mass. 02113.
# A conventional competition radioimmunoassay against radio labelled cyclic GMP was conducted to determine the amount of cyclic GMP induced by each concentration of test peptide. Results are shown in FIG. 1 and in the following table, in which representative subject peptides have been assayed in comparison with thymopentin (designated "TP-5") and a "nonsense" peptide H-ASP-ARG-TYR-LYS-VAL-OH.
# [2] = test system: isolated thymopoietin cell surface receptor protein from CEM cells; settings: for Displacement of 125I-TP (in words): comparison peptides
# [3] = Concentration of Peptide 10^0 μg/ml
# [4] = Concentration of Peptide 10^1 μg/ml
# [5] = at equivalent concentrations, with thymopoietin 37-45 nonapeptide, 12 h incubation
# [6] = Concentration of Peptide 10^3 μg/ml
# [7] = Concentration of Peptide 10^4 μg/ml
molecule,measurement,setting,value
"CC(=O)N[C@@H](CCCNC(=N)N)C(=O)N1CCC[C@H]1C(=O)N[C@@H](CC(=O)O)C(=O)N[C@H](C(=O)N[C@@H](Cc1ccccc1)C(N)=O)C(C)C [N-α-acetyl-ARG-PRO-ASP-VAL-PHE-NH2, Acetyl-Arginyl-Prolyl-Aspartyl-Valyl-Phenylalanineamide] (Ac-RPDVF-NH2)",Result on the cyclic-GMP assay (in words),[1],superior results
ubiquitin,Displacement of 125I-TP (in words),[2],no detectable displacement
"β-endorphin (YGGFMTSEKSQTPLVTLFKNAIIKNAYKKGE; Beta-endorphin; UniProt P01189 237-267, looked up)",Displacement of 125I-TP (in words),[2],no detectable displacement
"CC(=O)N[C@@H](CCCNC(=N)N)C(=O)NC(C)(C)C(=O)N[C@@H](CC(=O)O)C(=O)N[C@H](C(=O)N[C@@H](Cc1ccccc1)C(N)=O)C(C)C [N-α-acetyl-ARG-AIB-ASP-VAL-PHE-NH2, Acetyl-Arginyl-α-Aminoisobutyryl-Aspartyl-Valyl-Phenylalaminamide] (Ac-R[Aib]DVF-NH2)",Result on the cyclic-GMP assay (in words),[1],superior results
"CC(C)[C@H](NC(=O)[C@H](CC(=O)O)NC(=O)[C@H](CCCCN)NC(=O)[C@@H](N)CCCNC(=N)N)C(=O)N[C@@H](Cc1c[nH]cn1)C(=O)O [H--ARG--LYS--ASP--VAL--HIS--OH, Arginyl-Lysyl-Aspartyl-Valyl-Histidine] (H-RKDVH-OH)",Concentration of c-GMP Produced,[1]; [3],0 picomoles/ml
same,Concentration of c-GMP Produced,[1]; [4],9 picomoles/ml
same,Displacement of 125I-TP relative to that caused by thymopoietin self-displacement,[2]; [5],at least 50%
"CC(C)[C@H](NC(=O)[C@H](CC(=O)O)NC(=O)[C@H](CCCCN)NC(=O)[C@@H](N)CCCNC(=N)N)C(=O)N[C@@H](Cc1c[nH]c2ccccc12)C(=O)O [H-ARG-LYS-ASP-VAL-TRP-OH, Arginyl-Lysyl-Aspartyl-Valyl-Tryptophan] (H-RKDVW-OH)",Result on the cyclic-GMP assay (in words),[1],superior results
same,Displacement of 125I-TP relative to that caused by thymopoietin self-displacement,[2]; [5],at least 50%
"CC(C)[C@H](NC(=O)[C@H](CCCCN)NC(=O)[C@H](Cc1ccc(O)cc1)NC(=O)[C@H](CCCNC(=N)N)NC(=O)[C@@H](N)CC(=O)O)C(=O)O [H--ASP--ARG--TYR--LYS--VAL--OH, H-ASP-ARG-TYR-LYS-VAL-OH, reference compound] (H-DRYKV-OH)",Concentration of c-GMP Produced,[1]; [6],0 picomoles/ml
same,Concentration of c-GMP Produced,[1]; [7],0 picomoles/ml
same,Concentration of c-GMP Produced,[1]; Concentration of Peptide 10^5 μg/ml,0 picomoles/ml
"N^α -Acetyl-Arginyl-3,4-dehydro-Prolyl-Aspartyl-Valyl-Tyrosineamide",Result on the cyclic-GMP assay (in words),[1],superior results
facteur thymique serique [FTS],Displacement of 125I-TP (in words),[2],no detectable displacement
"CC(C)[C@H](NC(=O)[C@H](CC(=O)O)NC(=O)[C@H](CCCCN)NC(=O)[C@@H](N)CCCNC(=N)N)C(=O)N[C@@H](Cc1c[nH]c2ccccc12)C(N)=O [H-ARG-LYS-ASP-VAL-TRP-NH2, Arginyl-Lysyl-Aspartyl-Valyl-Tryptophan amide] (H-RKDVW-NH2)",Result on the cyclic-GMP assay (in words),[1],superior results
same,Displacement of 125I-TP relative to that caused by thymopoietin self-displacement,[2]; [5],at least 50%
"CC(C)[C@H](NC(=O)[C@H](CC(=O)O)NC(=O)[C@@H]1CCCN1C(=O)[C@@H](N)CCCNC(=N)N)C(=O)N[C@@H](Cc1ccccc1)C(=O)O [H--ARG--PRO--ASP--VAL--PHE--OH, Arginyl-Prolyl-Aspartyl-Valyl-Phenylalanine] (H-RPDVF-OH)",Concentration of c-GMP Produced,[1]; [3],0 picomoles/ml
same,Concentration of c-GMP Produced,[1]; [4],12 picomoles/ml
same,Displacement of 125I-TP relative to that caused by thymopoietin self-displacement,[2]; [5],at least 50%
"CC(=O)N[C@@H](CCCNC(=N)N)C(=O)N1CCC[C@H]1C(=O)N[C@@H](CC(=O)O)C(=O)N[C@H](C(=O)N[C@@H](Cc1ccccc1)C(=O)O)C(C)C [α-acetyl-ARG--PRO--ASP--VAL--PHE--OH, N^α -Acetyl-Arginyl-Prolyl-Aspartyl-Valyl-Phenylaline] (Ac-RPDVF-OH)",Concentration of c-GMP Produced,[1]; [3],7 picomoles/ml
same,Concentration of c-GMP Produced,[1]; [4],15 picomoles/ml
same,Displacement of 125I-TP relative to that caused by thymopoietin self-displacement,[2],at least 50%
"corticotropin-releasing factor (SEEPPISLDLTFHLLREVLEMARAEQLAQQAHSNRKLMEII; ends and bridges not checked; UniProt P06850 154-194, looked up) [CRF]",Displacement of 125I-TP (in words),[2],no detectable displacement
"adrenocorticotropic hormone (SYSMEHFRWGKPVGKKRRPVKVYPNGAEDESAEAFPLEF; Corticotropin; UniProt P01189 138-176, looked up) [ACTH]",Displacement of 125I-TP (in words),[2],no detectable displacement
"CC(C)[C@H](NC(=O)[C@H](CC(=O)O)NC(=O)[C@H](CCCCN)NC(=O)[C@@H](N)CCCN=C(N)N)C(=O)N[C@@H](Cc1ccc(O)cc1)C(=O)O [TP-5, thymopentin] (H-RKDVY-OH)",Concentration of c-GMP Produced,[1]; [3],0 picomoles/ml
same,Concentration of c-GMP Produced,[1]; [4],4.5 picomoles/ml
same,Concentration of c-GMP Produced,[1]; Concentration of Peptide 10^2 μg/ml,9 picomoles/ml
same,Concentration of c-GMP Produced,[1]; [6],12 picomoles/ml
same,Concentration of c-GMP Produced,[1]; [7],14 picomoles/ml
growth hormone,Displacement of 125I-TP (in words),[2],no detectable displacement
"CC(C)[C@H](NC(=O)[C@H](CC(=O)O)NC(=O)[C@H](CCCCN)NC(=O)[C@@H](N)CCCNC(=N)N)C(=O)N[C@@H](Cc1ccccc1)C(=O)O [H--ARG--LYS--ASP--VAL--PHE--OH, Arginyl-Lysyl-Aspartyl-Valyl-Phenylalanine] (H-RKDVF-OH)",Concentration of c-GMP Produced,[1]; [3],6 picomoles/ml
same,Concentration of c-GMP Produced,[1]; [4],9 picomoles/ml
same,Displacement of 125I-TP relative to that caused by thymopoietin self-displacement,[2]; [5],at least 50%
C[C@H](N)C(=O)NCC(=O)N[C@H]1CSSC[C@@H](C(=O)O)NC(=O)[C@H](CO)NC(=O)[C@H]([C@@H](C)O)NC(=O)[C@H](Cc2ccccc2)NC(=O)[C@H]([C@@H](C)O)NC(=O)[C@H](CCCCN)NC(=O)[C@H](Cc2c[nH]c3ccccc23)NC(=O)[C@H](Cc2ccccc2)NC(=O)[C@H](Cc2ccccc2)NC(=O)[C@H](CC(N)=O)NC(=O)[C@H](CCCCN)NC1=O [somatostatin],Displacement of 125I-TP (in words),[2],no detectable displacement
